{"source": "patent US6680058B1", "about": "“Compositions and methods for contraception in or sterilization of mammals” (Board of Supervisors of Louisiana State University and …, priority 1997, dated 2004)", "key": {"[1]": {"test_system": "sexually immature female rats", "test": "Sexually immature female rats, two intravenous injections, examined after reaching breeding age (Examples 7-8)", "assay_type": "in vivo, rat", "procedure": "Two sexually immature female rats from the same litter (age 33 days) were given two intravenous injections of saline control solution 24 hours apart. After the rats reached breeding age, they were examined 105 days post-inoculation. […] During a fourteen-day monitoring period 107 days to 121 days post-inoculation, each of the control rats completed two estrous cycles. The rats were then sacrificed and necropsied. The reproductive organs appeared histologically normal.\nTwo sexually immature female rats from the same litter as those of Example 7 (age 33 days) were given two intravenous injections of 500 μg GnRH/hecate fusion peptide in saline 24 hours apart. After the rats reached breeding age, they were examined 105 days post-inoculation. […] Unlike the control rats, insertion of a cotton-tipped swab into the vagina was difficult. […] The rats were then sacrificed and necropsied."}, "[2]": {"test_system": "sexually mature female New Zealand rabbits", "test": "Sexually mature female New Zealand rabbits, intravenous GnRH-hecate, GnRH challenge day 46, histology day 47 (Examples 44-46)", "assay_type": "in vivo, rabbit", "procedure": "Seven sexually mature female New Zealand rabbits were injected intravenously with saline containing GnRH-hecate as follows:\nForty-six days later all rabbits were injected intramuscularly with 100 μg GnRH. Blood samples were collected at 0, 1, 4, and 24 hours, and LH and FSH levels in the blood samples were measured by radioimmunoassay. […] The rabbits were sacrificed the next day (day 47) for postmortem histological analysis. […] Ovarian and pituitary weights were reduced by the 10 mg GnRH-hecate treatment."}, "[3]": {"biological_target": "T1, GnRH receptor (Rattus norvegicus, UniProt P30969)", "T1 construct": "specifically displaced radiolabelled monoiodinated-GnRH from rat pituitary membranes; from tissue; host or cells: rat pituitary membranes", "T1 sequence (P30969 1-327)": "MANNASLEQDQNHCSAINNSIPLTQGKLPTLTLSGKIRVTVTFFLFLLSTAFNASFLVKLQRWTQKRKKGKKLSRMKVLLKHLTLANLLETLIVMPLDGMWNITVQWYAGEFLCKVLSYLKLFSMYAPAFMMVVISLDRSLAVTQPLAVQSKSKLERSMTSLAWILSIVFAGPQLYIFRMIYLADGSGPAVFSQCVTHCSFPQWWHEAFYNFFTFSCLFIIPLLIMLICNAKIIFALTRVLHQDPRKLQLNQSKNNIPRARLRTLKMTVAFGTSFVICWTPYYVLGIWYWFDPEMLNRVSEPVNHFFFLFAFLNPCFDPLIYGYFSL", "test": "Displacement of radiolabelled monoiodinated-GnRH from rat pituitary membranes (Example 24)", "assay_type": "binding", "settings": "molar basis over a 1000-fold concentration range (n=6); native GnRH = 100%", "description": "We also synthesized D-Lys^6GnRH (SEQ. ID NO. 13), so that hecate could be conjugated to the D-Lys^6, a position that could minimize interference with binding of the GnRH domain to the GnRH receptor. These synthetic peptides specifically displaced radiolabelled monoiodinated-GnRH from rat pituitary membranes."}, "[4]": {"test_system": "pituitary basophilic (gonadotropic) cells", "test": "Adult female rat pituitary gland sections in tissue culture, histology ten hours after treatment (Examples 1-6)", "assay_type": "cell-based", "procedure": "The pituitary gland of an adult female rat was harvested and divided into six sections of approximately equal size. One section was placed in each of six wells containing tissue culture medium at 37° C. A different treatment was applied to each well, as described below. Ten hours after treatment, the tissue from each well was fixed, and the histology of each was examined microscopically."}, "[5]": {"test_system": "sexually mature, Sprague-Dawley female rats", "test": "Sexually mature Sprague-Dawley female rats, single intravenous treatment, necropsy 48 or 96 hours after treatment, H&E and PAS stain (Examples 15-22)", "assay_type": "in vivo, rat", "settings": "for appearance of the pituitary glands: 1 mg i.v.", "procedure": "Eight sexually mature, Sprague-Dawley female rats were randomly assigned to one of eight treatments. Each group of rats received a single treatment intravenously, as described below. Rats were sacrificed and necropsied either 48 or 96 hours after treatment. The ovaries, uterus, pancreas, liver, spleen, lungs, heart, thyroid, and adrenal glands were fixed in 10% buffered formalin; sectioned; and stained with H&E (hematoxylin and eosin) stain; except that the pituitary glands were stained with PAS (periodic acid-Schiff) stain with no counter-stain. The treatments were selected so that each animal received an equimolar amount of the compound with which it was treated."}, "[6]": {"settings": "two i.v. injections of 500 μg 24 hours apart at age 33 days, necropsy after day 121"}}, "note": "Where no end group is shown, it is not given here.", "data": [{"substance": "GnRH-hecate: fusion peptide of modified GnRH bonded directly to the lytic peptide hecate, SEQ. ID NO. 3 (QHWSYGLRPGFALALKALKKALKKLKKALKKAL; ends and bridges not checked; also: GnRH part modified, modification not given here)", "values": [{"measurement": "estrous cycling during fourteen-day monitoring period", "setting": "[1]; two i.v. injections of 500 μg 24 hours apart at age 33 days, 107 to 121 days post-inoculation", "value": "neither of the treated rats demonstrated estrous or metestrous"}, {"measurement": "insertion of a cotton-tipped swab into the vagina", "setting": "[1]; two i.v. injections of 500 μg 24 hours apart at age 33 days, 105 days post-inoculation", "value": "difficult"}, {"measurement": "ovarian follicles at necropsy", "setting": "[1]; [6]", "value": "contained no large follicles, and had a high number of atretic follicles"}, {"measurement": "uterine and oviductal epithelia at necropsy", "setting": "[1]; [6]", "value": "thinned, inactive"}, {"measurement": "appearance of external genitalia", "setting": "[1]; two i.v. injections of 500 μg in saline 24 hours apart at age 33 days, examined 105 days post-inoculation", "value": "appeared small"}, {"measurement": "LH release in response to 100 μg GnRH i.m.", "setting": "[2]; 5 mg or 10 mg i.v., challenge forty-six days later, radioimmunoassay", "value": "released LH in response to the GnRH"}, {"measurement": "cells staining alpha-MSH in the pituitary", "setting": "[2]; 5 mg or 10 mg i.v., day 47", "value": "increased numbers"}, {"measurement": "cells staining for LH in the pituitary", "setting": "[2]; 5 mg or 10 mg i.v., day 47", "value": "reduced numbers"}, {"measurement": "hippocampus and other areas of the brain containing high concentrations of GnRH", "setting": "[2]; 5 mg or 10 mg i.v., day 47", "value": "not discernibly affected"}, {"measurement": "immunoreactive GnRH in CNS areas normally containing cell bodies", "setting": "[2]; 5 mg or 10 mg i.v., day 47", "value": "faint and diffusely localized"}, {"measurement": "numbers of GnRH-induced ovulations", "setting": "[2]; 5 mg or 10 mg i.v., day 47", "value": "reduced"}, {"measurement": "numbers of corpora lutea", "setting": "[2]; 5 mg or 10 mg i.v., day 47", "value": "reduced"}, {"measurement": "numbers of tertiary follicles", "setting": "[2]; 5 mg or 10 mg i.v., day 47", "value": "reduced"}, {"measurement": "reduction in number of normal individual cell bodies", "setting": "[2]; 5 mg or 10 mg i.v., day 47", "value": "at least 50%"}, {"measurement": "terminal fields, which normally contain the axons of GnRH receptor neurons", "setting": "[2]; 5 mg or 10 mg i.v., day 47", "value": "not stained for GnRH"}, {"measurement": "number of PAS-stained pituitary cells in the pars distalis, relative to control rabbits", "setting": "[2]; 5 mg or 10 mg i.v., day 47, control = 100%", "value": 177, "unit": "%"}, {"measurement": "ovarian weights", "setting": "[2]; 10 mg i.v., day 47", "value": "reduced"}, {"measurement": "pituitary weights", "setting": "[2]; 10 mg i.v., day 47", "value": "reduced"}, {"measurement": "specific displacement of the radiolabelled peptide relative to equimolar concentrations of GnRH", "setting": "[3]", "value": "123%±4%"}, {"measurement": "histology of pituitary tissue after treatment", "setting": "[4]; 50 μM fusion peptide, ten hours", "value": "Widespread basophilic (gonadotropic) cellular destruction"}, {"measurement": "histology of pituitary tissue after treatment", "setting": "[4]; initial application of fusion peptide, second application two hours later", "value": "virtually destroyed, with only stromal cells remaining"}, {"measurement": "appearance of the pituitary glands", "setting": "[5]; sacrificed 48 hours after injection", "value": "slightly enlarged, hyperemic, and edematous"}, {"measurement": "appearance of the pituitary glands", "setting": "[5]; sacrificed 96 hours after injection", "value": "slightly hyperemic, but of expected size"}, {"measurement": "gross lesions in the organs", "setting": "[5]; 1 mg in 100 μL saline (2.7 mM) i.v., sacrificed 48 or 96 hours after injection", "value": "No gross lesions were noted in the organs of any of the four animals, other than the pituitary"}]}]}
